Source: ChEMBL document CHEMBL1122027, “N-Aralkyl substitution of 2-amino-5,6- and -6,7-dihydroxy-1,2,3,4-tetrahydronaphthalenes. 2. Derivatives of a hypotensive-positive inotropic agent” (1982)

Experiments:
Canis familiaris [1] = organism: Canis familiaris; experiment: Cardioselectivity was estimated by normalizing changes in diastolic blood pressure to the 100% levels of contractile force in mongrel dogs; assay type: functional, Canis lupus familiaris, Artery
Canis familiaris [2] = organism: Canis familiaris; experiment: Inotropic selectivity was assessed by normalizing changes in heart rate to the 100% levels in mongrel dogs; assay type: functional, Canis lupus familiaris
Canis familiaris [3] = organism: Canis familiaris; experiment: Inotropic selectivity was assessed by normalizing changes in heart rate to the 50% levels in mongrel dogs; assay type: functional, Canis lupus familiaris
Canis familiaris [4] = experiment: In vivo dose causing a 100% increase in right ventricular contractile force in mongrel dogs; assay type: functional, Canis lupus familiaris, Heart right ventricle
Canis familiaris [5] = experiment: In vivo dose causing a 50% increase in right ventricular contractile force in mongrel dogs; assay type: functional, Canis lupus familiaris, Heart right ventricle
Canis familiaris [6] = organism: Canis familiaris; experiment: Cardioselectivity was estimated by normalizing changes in diastolic blood pressure to the 50% levels of contractile force in mongrel dogs; assay type: functional, Canis lupus familiaris, Artery

Structure (SMILES) | Delta blood pressure (Canis familiaris [1]) [mmHg] | Delta HR (Canis familiaris [2]) [beats min-1] | Delta HR (Canis familiaris [3]) [beats min-1] | Inotropic potency (Canis familiaris [4]) [nM/kg] | Inotropic potency (Canis familiaris [5]) [nM/kg] | Delta blood pressure (Canis familiaris [6]) [mmHg]
CC(Cc1ccc(O)c(O)c1)NC1CCc2cc(O)c(O)cc2C1 (centres undefined) | -30 | 4 | -5 | 27 | 11.4 | -39
COc1ccc(CC(C)NCCc2ccc(O)c(O)c2)cc1OC (centres undefined) | -31 | 17 | 10 | 1100 | 490 | -24
CC(Cc1ccc(O)cc1)NC1CCc2cc(O)c(O)cc2C1 (centres undefined) |  |  | 23 |  | 680 | -25
CC(Cc1ccc(O)c(O)c1)NC1CCc2cc(O)ccc2C1 (centres undefined) | -66 | 49 | 30 | 85 | 25 | -46
Oc1cc2c(cc1O)CC(NC1CCc3cc(O)c(O)cc3C1)CC2 (centres undefined) | 84 | 62 | 31 | 2650 | 961 | -78
CC(Cc1ccc(O)c(O)c1)NCCc1ccc(O)c(O)c1 (centres undefined) | -34 | 39 | 26 | 13 | 4 | -19
Oc1cc2c(cc1O)CC(NC1CCc3c(ccc(O)c3O)C1)CC2 (centres undefined) | -55 | 31 | 24 | 590 | 210 | -61
